Experimental data: patent publication US20250002954A1, “Novel Compound, Use Thereof, and Method for Producing Same, and Compound-Containing Composition, Method for Producing 4-Trehalosamine, and Microorganism” (Microbial Chemistry Research Foundation, priority 2021, published 2025)

Assays:
[1] = tested on: autophagy-related transcription factor EB (TFEB) in OVK18 and Mewo cells; assay: Elevated expression and nuclear localization of TFEB (western blotting, immunostaining); assay type: cell-based, human; details: 50 mM 4-trehalosamine, 100 μM IMCTA-C14 or 100 mM trehalose, 14 hours
Description: Elevated expression and nuclear localization of autophagy-related transcription factor EB (TFEB) when human ovarian cancer cells or human malignant melanoma cells were treated with 4-trehalosamine or trehalose analog were determined by western blotting and immunostaining.
Fractionation of nuclear and cytoplasm was performed in the following manner using buffer that was a modification of the buffer according to the report of Dignam et al. (J. D. Dignam et al., Nucleic Acids Res, 1983, 11 (5), p. 1475-1489).
Human ovarian cancer cells OVK18 (obtained from RIKEN BRC) and human malignant melanoma cells Mewo (JCRB0066) were each inoculated on a 6-well plate at 2×10^5 cells/2 mL/well, and cultured in DMEM culture medium at 37° C. for 48 hours. After that, as with test example 10-1, a half of the culture fluid in each well was taken, and each compound was dissolved so that the final concentration is 50 mM 4-trehalosamine, 50 µM IMCTA-C14, 100 μM IMCTA-C14, or 100 mM trehalose. After dissolving it sufficiently, the cells were returned to the original well and treated at 37° C. for 14 hours. Untreated cells without addition of the compounds were used as control. […]
The protein concentration of each fraction was measured with protein quantification reagent (XL-Bradford, integrale) and the amount of expression of TFEB in each fraction was examined by western blotting. […]

[2] = Starch aging inhibiting effect, enzyme assay 5 (wheat flour gel); details: final concentration 10% or 15% (w/w), 48 and 96 hours
Description: Starch aging inhibiting effect was determined in a similar manner to the <Enzyme assay 3> except that potato starch was changed to wheat flour (organic wheat flour, from Kanazawa Daichi) in the “—Preparation of measurement samples—” of the <Enzyme assay 3>. The results for the 10% (w/w) final concentration of the different sugars are shown in FIG. 15I, and the results for the 15% (w/w) final concentration of the different sugars are shown in FIG. 15J.

[3] = tested on: human trehalase; assay: Degradation by human trehalase (cell extract liquids of KP4 and KP4-TREH, LC-MS persistence rate); assay type: in vitro ADME; details: 20 μg/mL, 37° C., up to 24 hours; for degradation by cell extract liquid of human pancreatic cancer cells KP4: control cells
Description: In order to perform a degradation experiment with human trehalase, high expression strains of the same were made.
This plasmid was introduced into various kinds of cultured human cells using Viafect (manufactured by Promega), and the expression level of transient trehalase protein was analyzed by western blotting with 1/2,000-diluted anti-trehalase antibody (manufactured by Santa Cruz). […] Human pancreatic cancer cells KP4 into which pSF-TREH 3-3 plasmid had been introduced as described above was diluted to one cell or less per well, and applied to a 96-well microplate. They were cultured on DMEM culture medium containing 400 μg/mL of G418 (manufactured by Thermo Fisher Scientific), and clones with stable trehalase expression were selected and amplified. Ten strains of KP4-TREH which were the clones with the highest trehalase expression were chosen for use in the subsequent experiments.
Degradation of 4-trehalosamine and trehalose by cell extract liquids of human pancreatic cancer cells KP4 and 10 strains of KP4-TREH, which are cells with high human trehalase expression, was examined.
Using DMEM culture medium, each of the human pancreatic cancer cells KP4 and the 10 strains of KP4-TREH was amplified in a CO2 incubator at 37° C. until they were confluent. After that, the culture medium was removed and washed with PBS (manufactured by Takara Bio Inc.) three times, and cells were collected with a cell scraper in the PBS. After centrifuging the collected cell suspension at 400×g for 3 minutes and removing supernatant, 135 mM citric acid buffer solution (pH 5.7) containing 0.5% Triton (registered trademark) in an amount 15 times the precipitated cells was added and homogenized. The cells were centrifuged at 21,300×g for 10 minutes and the respective supernatants were collected. Aqueous solution of 4-trehalosamine or aqueous solution of trehalose was added at 20 μg/mL to each supernatant and they were left to stand at 37° C. At 0 hours, 2 hours, 8 hours, or 24 hours from the start of reaction, the reaction solutions were collected, was diluted with methanol to 1/10, and centrifuged at 21,300×g for 10 minutes. The respective supernatants were collected and LC-MS analysis was performed under similar conditions to test example 1 to determine the persistence rates of 4-trehalosamine and trehalose in the reaction solution (4TA C) of 4-trehalosamine and the cell extract liquid of human pancreatic cancer cells KP4, the reaction solution (4TA T) of 4-trehalosamine and the cell extract liquid of 10 strains of KP4-TREH, the reaction solution (TRH C) of trehalose and the cell extract liquid of human pancreatic cancer cells KP4, and the reaction solution (TRH T) of trehalose and the cell extract liquid of 10 strains of KP4-TREH.

Row | SMILES | expression and nuclear localization of TFEB [1] | rate of degradation by β-amylase (starch aging inhibiting effect) [2] | degradation by cell extract liquid of 10 strains of KP4-TREH (high human trehalase expression) [3] | degradation by cell extract liquid of human pancreatic cancer cells KP4 [3]
1 | N[C@H]1[C@H](O)[C@@H](O)[C@@H](O[C@H]2O[C@H](CO)[C@@H](O)[C@H](O)[C@H]2O)O[C@@H]1CO [4-trehalosamine] | elevated expression and nuclear localization of TFEB | significantly high rate of degradation by β-amylase at and after 48 hours compared to the other gels | almost no degradation or decrease | neither trehalose nor 4-trehalosamine was degraded
2 | OC[C@H]1O[C@H](O[C@H]2O[C@H](CO)[C@@H](O)[C@H](O)[C@H]2O)[C@H](O)[C@@H](O)[C@@H]1O [trehalose, reference compound] | – | – | almost disappeared after 8 hours | neither trehalose nor 4-trehalosamine was degraded
